7 compounds from patent US5776935A, “Pyrido-phtalazin diones and their use against neurological disorders associated with excitotoxicity and malfunctioning of glutamatergic neurotransmission” (Merz & Co. GmbH & Co., priority 1996, dated 1998) can be followed below.

Read-outs that look alike come from different tables or passages of the source.

Assay [1] deals with T1, NMDA receptor (Rattus norvegicus, UniProt P35439).
T1 construct: endogenous in cells
Description: Patch clamp, inward currents to NMDA in cultured superior colliculus neurones. The format is cell-based. The settings on record: for IC50 / IC50 against inward currents to NMDA: NMDA 200 μM; for voltage-dependence of effect: NMDA currents; for Kb: read-out: Kb (Cheng-Prusoff relationship). The method, then:
Cells were mechanically dissociated in 0.05% DNAase / 0.3% ovomucoid (Sigma) following a 15 minute pre-incubation with 0.66% trypsin / 0.1% DNAase (Sigma). The dissociated cells were then centrifuged at 18G for 10 minutes, resuspended in minimum essential medium (Gibco) and plated at a density of 200,000 cells cm onto poly-L-lysine (Sigma)-precoated plastic petri dishes (Falcon). The cells were nourished with NaHCO3 /HEPES-buffered minimum essential medium supplemented with 5% foetal calf serum and 5% horse serum (Gibco) and incubated at 37° C. with 5%CO2 at 95% humidity. The medium was exchanged completely following inhibition of further glial mitosis with cytosine-β-D-arabinofuranoside (20 μM Sigma) after about 7 days in vitro. Thereafter the medium was exchanged partially twice weekly. […] Moreover, the relatively small neurones (soma 15-20 μm .phi.) are ideally suited to minimise problems of buffered diffusion for concentration clamp experiments.
Patch clamp recordings were made from these neurones with polished glass electrodes (4-6 m.OMEGA.) in the whole cell mode at room temperature (20°-22° C.) with the aid of an EPC-7 amplifier (List). Test substances were applied by switching channels of a custom made fast superfusion system with a common outflow (10-20 ms exchange times). The contents of the intracellular solution were as follows (mM): CsCl (120), TEACl (20), EGTA (10), MgCl2 (1), CaCl2 (0.2), glucose (10), ATP (2), cAMP (0.25); pH was adjusted to 7.3 with CsOH or HCl. The extracellular solutions had the following basic composition (mM): NaCl (140), KCl (3), CaCl2 (0.2), glucose (10), HEPES (10), sucrose (4.5), tetrodotoxin (TTX 3*10-4). For most experiments glycine (1 μM) was present in all solutions. Experiments to test the glycine-dependence of the tricyclic "pyrido-phtalazin diones" were performed in the continuous presence of increasing concentrations of glycine (1-10 μM).
This effect was mediated at the glycineB site as evidenced by the parallel shift in the concentration-response curves in the presence of increasing glycine concentrations. Thus the Kbs of Mrz 2/502 as assessed according to the Cheng-Prusoff relationship were similar in glycine 1, 3 and 10 μM (80, 124 and 118 nM respectively). […] Choline derivatives had similar potencies to the free acids in vitro (Table14b).
On the technique in general: Patch clamp records ionic current or voltage across a cell membrane.

In assay [2] the target is T2, NMDA receptor (Mus musculus, UniProt P35438).
T2 construct: from tissue; host or cells: living mice (albino Swiss males for NMDA and PTZ tests, NMR females for MES)
Kind of assay: Pentylenetetrazol (PTZ)-induced convulsions. The format is in vivo. The following applies: ip, 0.25 h, i.p., PTZ 90 mg/kg i.p., read-out: PTZ ID50. How it is done:
To assess NMDA receptor antagonistic properties of the tested agents by assessing anticonvulsive effects. Additionally the role of organic acid transporters in the elimination from the brain of tested agents was assessed by using an inhibitor, Probenicid, on the duration of anticonvulsive activity.
Male albino Swiss mice (19-21 g) housed 10-15 per cage were used for the NMDA lethality test (Leander et al., 1988). For pentylenetetrazol (PTZ)-induced convulsions male albino Swiss mice (25-34 g.) housed 40 per cage (58×38×20 cm) were used while in the maximal electroshock (MES) and motor impairment tests NMR female mice (18-28 g) housed 5 per cage were employed. All animals were kept with water and food ad libittum under a 12-h light-dark cycle (light on at 6 a.m.), and at a controlled temperature (20°±0.5° C.). All experiments were performed between 10 a.m. and 5 p.m. Tested agents were injected 15 min. i.p before the induction of convulsions if not stated otherwise (see below). Mrz 2/502 was dissolved in saline added with NaOH. Most other agents were dissolved in the following solution: 0.606 g Tris; 5.0 g. glucose; 0.5 g. Tween 80; and 95 ml water. The choline and tetramethylammonium salts were dissolved in distilled water.
Pentylenetetrazol was injected at a dose of 90 mg/kg (i.p). The presence of general tonic convulsions was then scored for 30 min as this parameter is more sensitive to NMDA receptor antagonists than clonic convulsions. The pharmacological end-point was taken as the presence of tonus in the hind limbs with stretching.

The mark [3] stands for this setting: glycine 1 μM, peak currents, read-out: Peak NMDA IC50.
[4] abbreviates: glycine 1 μM, plateau (steady-state) currents, read-out: Plateau NMDA IC50.

What is called IC50 is the concentration that gives 50% inhibition. With `O=c1[nH][nH]c(=O)c2nc3ccc(F)cc3cc12` [Mrz 2/519], the values for the IC50 at NMDA receptor [1] (setting [3]) and on NMDA receptor [1] (setting [4]) were 18000 nM and 5800 nM, respectively. Moreover, the ED50 on NMDA receptor [2] was > 100 mg/kg.
The corresponding values for `O=c1[nH][nH]c(=O)c2nc3ccc(Br)cc3cc12` [Mrz 2/503] are 1700 nM, 600 nM and > 100 mg/kg.
Take `O=c1[nH]nc(O)c2c1cc1cc(Br)ccc1[n+]2[O-]` [Mrz 2/514, 8-bromo-4-hydroxy-1-oxo-1,2-dihydropyridazino[4,5-b]-quinoline 5-oxide]: the “IC50 against inward currents to NMDA” value on NMDA receptor [1] is “most potent”. Further, the half-inhibitory concentration (IC50) at NMDA receptor [1] (setting [3]) worked out at 500 nM; at NMDA receptor [1] (setting [4]) it was 200 nM. Further, the ED50 on NMDA receptor [2] is 12.8 mg/kg.
`O=c1[nH]nc(O)c2c1cc1cc(Cl)ccc1[n+]2[O-]` [Mrz 2/502, 8-chloro-4-hydroxy-1-oxo-1,2-dihydropyridazino[4,5-b]-quinoline 5-oxide]: on NMDA receptor [1], the “IC50 against inward currents to NMDA” value is “most potent”. The 50% inhibitory concentration (IC50) on NMDA receptor [1] (setting [3]) was 800 nM; at NMDA receptor [1] (setting [4]), 300 nM. For the same compound, the voltage-dependence of effect entry on NMDA receptor [1] is recorded as “not voltage-dependent”. For the same compound, the Kb on NMDA receptor [1] (glycine 1 μM) was 80 nM; at NMDA receptor [1] (glycine 3 μM), 124 nM; at NMDA receptor [1] (glycine 10 μM), 118 nM. Moreover, the ED50 on NMDA receptor [2] worked out at 8.3 mg/kg.
Turning to `O=c1[nH]nc(O)c2c1cc1cc(F)ccc1[n+]2[O-]` [Mrz 2/516, 8-fluoro-4-hydroxy-1-oxo-1,2-dihydropyridazino[4,5-b]-quinoline 5-oxide], the IC50 on NMDA receptor [1] (setting [3]) stood at 6300 nM; on NMDA receptor [1] (setting [4]), 1600 nM. Moreover, the ED50 on NMDA receptor [2] was determined as 7.9 mg/kg.
Turning to `O=c1[nH][nH]c(=O)c2nc3ccc(Cl)cc3cc12` [Mrz 2/501], the IC50 at NMDA receptor [1] (setting [3]) worked out at 2300 nM; on NMDA receptor [1] (setting [4]) it was 700 nM. Moreover, the voltage-dependence of effect result at NMDA receptor [1] is listed as “not voltage-dependent”. The ED50 at NMDA receptor [2] is > 40 mg/kg.
For the compound `O=c1[nH][nH]c(=O)c2nc3cc(Cl)c(Cl)cc3cc12` [Mrz 2/515], the IC50 stood at 3700 nM at NMDA receptor [1] (setting [3]) and 900 nM at NMDA receptor [1] (setting [4]). The ED50 at NMDA receptor [2] was > 100 mg/kg.
